# System: NOD mice transgenic for HLA DQ8 (NOD-DQ8)
# Assay: NOD-DQ8 mice orally challenged with gliadin
# Type: in vivo, mouse
# Excerpt: In the second model of gluten sensitivity, the Applicant resorted to non-obese diabetic (NOD) female mice, which spontaneously develop autoimmune type-1 diabetes (Maurano, F., et al. 2005).
# BALB/c mice (background BALB/cAnNCrl) were purchased from Charles River (Varese, Italy). Three generation gluten-free diet (Mucedola srl, Milan), male and female, were challenged with gliadin for 4 weeks. […]
# Chambers for mounting either transwell cell cultures or mouse tissue biopsies were obtained from Physiologic Instruments (model P2300, San Diego, Calif., USA). […] Shortcircuit current (expressed as Isc (μA/cm2)) and resistance were acquired or calculated using the VCC600 transepithelial clamp from Physiologic Instruments and the Acquire & Analyze 2.3 software for data acquisition (Physiologic Instruments), as previously described Tosco A, et al. 2016; Romani, L. et al. 2017).
# ELISA analysis was performed on tissue samples using standard ELISA kits (R&D Systems) for IL-15, IL-17A, INFγ IL21, IL10, TGF-β. […] Samples were read in triplicate at 450 nm in a Microplate Reader (BioRad, Milan, Italy) using Microplate Manager 5.2.1 software. Values were normalized to protein concentration evaluated by Bradford analysis. […]
smiles,measurement,value
"CC(C)(C)c1cc(C(C)(C)C)c(NC(=O)c2c[nH]c3ccccc3c2=O)cc1O [VX-770, N-(2,4-di-tert-butyl-5-hydroxyphenyl)-4-oxo-1,4-dihydroquinoline-3-carboxamide]",effect on gliadin-induced increase of IFN-γ,counteracted the gliadin-induced increase of IFN-γ

# Reference: patent US20200206198A1, “CFTR CHANNEL ACTIVATOR FOR USE IN THE TREATMENT AND/OR PREVENTION OF GLUTEN SENSITIVITY CONDITIONS” (priority 2017, published 2020)
